The values below come from ChEMBL document CHEMBL4316639, “Clavukoellians A-F, Highly Rearranged Nardosinane Sesquiterpenoids with Antiangiogenic Activity from Clavularia koellikeri” (2019).

The term GI50 denotes the concentration giving 50% growth inhibition.

Activity calls are given as the source filed them. The rule behind the calls is not given here.

Test [1] relates to HUVEC. Nature of the test: Antiangiogenic activity in HUVEC assessed as inhibition of cell migration incubated for 6 to 24 hrs by wound healing assay. The test is classed as functional, cell-based. The conditions noted are these: Homo sapiens.
Test [2] relates to HUVEC. Nature of the test: Antiangiogenic activity in HUVEC assessed as inhibition of cell migration at 2.5 uM incubated for 6 to 24 hrs by wound healing assay. The test is classed as functional, cell-based. The settings on record: Homo sapiens.
A short description of test [3]: Antiproliferative activity in human OE21 cells assessed as inhibition of cell proliferation by Cell-titer-Glo method. The test is classed as functional.
In a further test the test system is MV4-11. Nature of the test: Antiproliferative activity in human MV4-11 cells assessed as inhibition of cell proliferation by Cell-titer-Glo method. It is filed as functional.
For another test, the system named is MOLM-13. In words: Antiproliferative activity in human MOLM13 cells assessed as inhibition of cell proliferation by Cell-titer-Glo method. It is filed as functional.
For another test, the system named is OE19. Nature of the test: Antiproliferative activity in human OE19 cells assessed as inhibition of cell proliferation by Cell-titer-Glo method. It is filed as functional.
The subject of a further test is KYSE-520 cell line. Nature of the test: Antiproliferative activity in human KYSE520 cells assessed as inhibition of cell proliferation by Cell-titer-Glo method. It is filed as functional.

As for `C/C1=C/[C@@]2(C)C(=CCC[C@@H]2C)CC[C@H](O)[C@H]1O`, in the test on HUVEC [1], the Activity result was “Dose-dependent effect”. For the same molecule, the outcome in the test on HUVEC [2] was Active.

As to `CC1=C([C@@]2(C)C3=CC(=O)O[C@@H]3CC[C@@H]2C)C(=O)NC1=O`, the Activity result in the test on HUVEC [1] is “Dose-dependent effect”. Besides, the outcome in the test on HUVEC [2] was Active.

Consider `C[C@@H]1C(=O)O[C@]23C=CC(=O)[C@H]1[C@]2(C)[C@@H](C)CC[C@H]3O`, for which the GI50 (in test [3]; with MV4-11; in the test on MOLM-13; with OE19; in the test with KYSE-520 cell line) was 6.4 to 8.6 µM throughout.
